Measurements reported in ChEMBL document CHEMBL1155658, “Isolation and structures of schleicherastatins 1-7 and schleicheols 1 and 2 from the teak forest medicinal tree Schleichera oleosa” (2000).
≈ marks a conversion by molar mass, not a printed value. Blank lines part the entries; values can stand above or below the compound they belong to.

Legend:
Format in all cases: functional
[1] = tested on: P388; assay: Growth inhibition of mouse P388 cells
[2] = tested on: BXPC-3; assay: Growth inhibition of human BXPC3 cells
[3] = tested on: NCI-H460; assay: Growth inhibition of human NCI-H460 cells
[4] = Growth inhibition of human prostate cancer cells; conditions: Cancer cell lines
[5] = tested on: OVCAR-3; assay: Growth inhibition of human OVCAR-3 cells
[6] = tested on: KM-20L2; assay: Growth inhibition of human KM20L2 cells
[7] = tested on: SF-295; assay: Growth inhibition of human SF295 cells

Structure (SMILES): COC(=O)c1ccc(O)c(O)c1 [METHYL PROTOCATECHUATE]
EC50 ([1]; read-out: ED50 (the source's name)): 1.4 µg/mL (≈ 8.33 µM)

Structure (SMILES): CO[C@H]1C=C2C[C@@H](O)CC[C@]2(C)[C@H]2CC[C@]3(C)C([C@H](C)[C@H](O)C[C@H](C)C(C)C)CC[C@H]3[C@H]12 (some centres not stated) [SCHLEICHERASTATIN 4]
GI50 [1]: 1.2 µg/mL (≈ 2.69 µM)

Structure (SMILES): CC[C@H](CC[C@@H](C)C1CC[C@H]2[C@@H]3[C@@H](OC)C=C4C[C@@H](O)CC[C@]4(C)[C@H]3CC[C@]12C)C(C)C (some centres not stated) [SCHLEICHEOL 1]
GI50 [1]: 14 µg/mL (≈ 31.5 µM)
GI50 [2]: 3.3 µg/mL (≈ 7.42 µM)
GI50 [3]: 1.8 µg/mL (≈ 4.05 µM)
GI50 [4]: 1.8 µg/mL (≈ 4.05 µM)
GI50 [5]: 2.1 µg/mL (≈ 4.72 µM)
GI50 [6]: 2.5 µg/mL (≈ 5.62 µM)
GI50 [7]: 3.2 µg/mL (≈ 7.2 µM)

Structure (SMILES): CC[C@H](CC[C@@H](C)C1CC[C@H]2C3[C@H](OC)C=C4C[C@@H](O)CC[C@]4(C)[C@H]3CC[C@]12C)C(C)C (some centres not stated) [SCHLEICHEOL 2]
GI50 [1]: 15 µg/mL (≈ 33.7 µM)
GI50 [2]: 1.4 µg/mL (≈ 3.15 µM)
GI50 [3]: 2.2 µg/mL (≈ 4.95 µM)
GI50 [4]: 1.6 µg/mL (≈ 3.6 µM)
GI50 [5]: 2.5 µg/mL (≈ 5.62 µM)
GI50 [6]: 1.2 µg/mL (≈ 2.7 µM)
GI50 [7]: 1.9 µg/mL (≈ 4.27 µM)

Structure (SMILES): CO[C@H]1C=C2C[C@@H](O)CC[C@]2(C)[C@H]2CC[C@]3(C)C([C@H](C)[C@H](O)C[C@@H](C)C(C)C)CC[C@H]3[C@H]12 (some centres not stated) [SCHLEICHERASTATIN 3]
GI50 [1]: 1.2 µg/mL (≈ 2.69 µM)

Structure (SMILES): CC(C)[C@H](C)C[C@@H](O)[C@@H](C)C1CC[C@H]2[C@@H]3C(=O)C=C4C[C@@H](O)CC[C@]4(C)[C@H]3CC[C@]12C (some centres not stated) [SCHLEICHERASTATIN 6]
GI50 [1]: 0.78 µg/mL (≈ 1.81 µM)

Other lines, results leading:

GI50 [1]: 0.72 µg/mL (≈ 1.56 µM)
Structure (SMILES): CC[C@H](C[C@@H](O)[C@@H](C)[C@H]1CC[C@H]2[C@@H]3[C@H](OC)C=C4C[C@@H](O)CC[C@]4(C)[C@H]3CC[C@]12C)C(C)C [SCHLEICHERASTATIN 2]

GI50 [1]: 0.78 µg/mL (≈ 1.81 µM)
Structure (SMILES): CC(C)[C@@H](C)C[C@@H](O)[C@@H](C)C1CC[C@H]2[C@@H]3C(=O)C=C4C[C@@H](O)CC[C@]4(C)[C@H]3CC[C@]12C (some centres not stated) [SCHLEICHERASTATIN 7]

GI50 [1]: 0.19 µg/mL (≈ 0.412 µM)
Structure (SMILES): CC[C@H](C[C@@H](O)[C@@H](C)[C@H]1CC[C@H]2[C@@H]3[C@@H](OC)C=C4C[C@@H](O)CC[C@]4(C)[C@H]3CC[C@]12C)C(C)C [SCHLEICHERASTATIN 1]

GI50 [1]: 0.34 µg/mL (≈ 0.765 µM)
Structure (SMILES): CC[C@H](C[C@@H](O)[C@@H](C)C1CC[C@H]2[C@@H]3C(=O)C=C4C[C@@H](O)CC[C@]4(C)[C@H]3CC[C@]12C)C(C)C (some centres not stated) [SCHLEICHERASTATIN 5]
